# Assay results from ChEMBL document CHEMBL5724914, “Linking interpersonal differences in gut microbiota composition and drug biotransformation activity” (2024).
# Experiment: (§1) The drug is tested on Z-021 corresponding to metagenome with ENA study accession number: PRJEB37062 and ENA sample accession number: ERS12561820 for biotransformation under anaerobic condition. The drug concentrations were measured over 9 timepoints collected between 0 and 24 hours of incubation by liquid-chromatography-coupled mass spectrometry (LC–MS)
# Settings: 2 µM
# Also: call rule not given here.
row,Compound,Bacterial Biotransformation
1,CC(NC(C)(C)C)C(=O)c1cccc(Cl)c1 (stereo not given) [BUPROPION],Compound NOT metabolized
2,O=C1CC2(CCCC2)CC(=O)N1CCCCN1CCN(c2ncccn2)CC1 [BUSPIRONE],Compound NOT metabolized

# Experiment: (§2) The drug is tested on Z-019 corresponding to rat gut metagenome with ENA study accession number: PRJEB37062 and ENA sample accession number: ERS12561818 for biotransformation under anaerobic condition. The drug concentrations were measured over 9 timepoints collected between 0 and 24 hours of incubation by liquid-chromatography-coupled mass spectrometry (LC–MS)
# Settings: 2 µM
row,Compound,Bacterial Biotransformation
1,CC(NC(C)(C)C)C(=O)c1cccc(Cl)c1 (stereo not given) [BUPROPION],Compound NOT metabolized
2,O=C1CC2(CCCC2)CC(=O)N1CCCCN1CCN(c2ncccn2)CC1 [BUSPIRONE],Compound NOT metabolized

# Experiment: as §2, with “on Z-018” for “on Z-019”, “to pig” for “to rat”, “number: ERS12561817” for “number: ERS12561818”
# Settings: 2 µM
row,Compound,Bacterial Biotransformation
1,CC(NC(C)(C)C)C(=O)c1cccc(Cl)c1 (stereo not given) [BUPROPION],Compound metabolized
2,O=C1CC2(CCCC2)CC(=O)N1CCCCN1CCN(c2ncccn2)CC1 [BUSPIRONE],Compound NOT metabolized

# Experiment: as §2, with “on Z-017” for “on Z-019”, “to mouse” for “to rat”, “number: ERS12561816” for “number: ERS12561818”
# Settings: 2 µM
row,Compound,Bacterial Biotransformation
1,CC(NC(C)(C)C)C(=O)c1cccc(Cl)c1 (stereo not given) [BUPROPION],Compound NOT metabolized
2,O=C1CC2(CCCC2)CC(=O)N1CCCCN1CCN(c2ncccn2)CC1 [BUSPIRONE],Compound NOT metabolized

# Experiment: as §2, with “Z-014” for “Z-019”, “ERS12561814” for “ERS12561818”
# Settings: 2 µM
row,Compound,Bacterial Biotransformation
1,CC(NC(C)(C)C)C(=O)c1cccc(Cl)c1 (stereo not given) [BUPROPION],Compound NOT metabolized
2,O=C1CC2(CCCC2)CC(=O)N1CCCCN1CCN(c2ncccn2)CC1 [BUSPIRONE],Compound NOT metabolized

# Experiment: as §1, with “Z-010” for “Z-021”, “ERS12561810” for “ERS12561820”
# Settings: 2 µM
row,Compound,Bacterial Biotransformation
1,CC(NC(C)(C)C)C(=O)c1cccc(Cl)c1 (stereo not given) [BUPROPION],Compound NOT metabolized
2,O=C1CC2(CCCC2)CC(=O)N1CCCCN1CCN(c2ncccn2)CC1 [BUSPIRONE],Compound metabolized

# Experiment: as §1, with “Z-005” for “Z-021”, “ERS12561805” for “ERS12561820”
# Settings: 2 µM
row,Compound,Bacterial Biotransformation
1,CC(NC(C)(C)C)C(=O)c1cccc(Cl)c1 (stereo not given) [BUPROPION],Compound NOT metabolized
2,O=C1CC2(CCCC2)CC(=O)N1CCCCN1CCN(c2ncccn2)CC1 [BUSPIRONE],Compound NOT metabolized

# Experiment: as §2, with “on Z-001” for “on Z-019”, “to mouse” for “to rat”, “number: ERS12561801” for “number: ERS12561818”
# Settings: 2 µM
row,Compound,Bacterial Biotransformation
1,CC(NC(C)(C)C)C(=O)c1cccc(Cl)c1 (stereo not given) [BUPROPION],Compound NOT metabolized
2,O=C1CC2(CCCC2)CC(=O)N1CCCCN1CCN(c2ncccn2)CC1 [BUSPIRONE],Compound NOT metabolized

# Experiment: as §2, with “on WLS-170” for “on Z-019”, “to human” for “to rat”, “number: ERS12561762” for “number: ERS12561818”
# Settings: 2 µM
row,Compound,Bacterial Biotransformation
1,CC(NC(C)(C)C)C(=O)c1cccc(Cl)c1 (stereo not given) [BUPROPION],Compound NOT metabolized
2,O=C1CC2(CCCC2)CC(=O)N1CCCCN1CCN(c2ncccn2)CC1 [BUSPIRONE],Compound metabolized

# Experiment: as §2, with “on WLS-090” for “on Z-019”, “to human” for “to rat”, “number: ERS12561753” for “number: ERS12561818”
# Settings: 2 µM
row,Compound,Bacterial Biotransformation
1,CC(NC(C)(C)C)C(=O)c1cccc(Cl)c1 (stereo not given) [BUPROPION],Compound NOT metabolized
2,O=C1CC2(CCCC2)CC(=O)N1CCCCN1CCN(c2ncccn2)CC1 [BUSPIRONE],Compound metabolized

# Experiment: as §2, with “on WLS-086” for “on Z-019”, “to human” for “to rat”, “number: ERS12561752” for “number: ERS12561818”
# Settings: 2 µM
row,Compound,Bacterial Biotransformation
1,CC(NC(C)(C)C)C(=O)c1cccc(Cl)c1 (stereo not given) [BUPROPION],Compound NOT metabolized
2,O=C1CC2(CCCC2)CC(=O)N1CCCCN1CCN(c2ncccn2)CC1 [BUSPIRONE],Compound metabolized

# Experiment: as §2, with “on WLS-082” for “on Z-019”, “to human” for “to rat”, “number: ERS12561751” for “number: ERS12561818”
# Settings: 2 µM
row,Compound,Bacterial Biotransformation
1,CC(NC(C)(C)C)C(=O)c1cccc(Cl)c1 (stereo not given) [BUPROPION],Compound NOT metabolized
2,O=C1CC2(CCCC2)CC(=O)N1CCCCN1CCN(c2ncccn2)CC1 [BUSPIRONE],Compound NOT metabolized

# Experiment: as §2, with “on WLS-039” for “on Z-019”, “to human” for “to rat”, “number: ERS12561746” for “number: ERS12561818”
# Settings: 2 µM
row,Compound,Bacterial Biotransformation
1,CC(NC(C)(C)C)C(=O)c1cccc(Cl)c1 (stereo not given) [BUPROPION],Compound NOT metabolized
2,O=C1CC2(CCCC2)CC(=O)N1CCCCN1CCN(c2ncccn2)CC1 [BUSPIRONE],Compound NOT metabolized

# Experiment: as §2, with “on WLS-027” for “on Z-019”, “to human” for “to rat”, “number: ERS12561744” for “number: ERS12561818”
# Settings: 2 µM
row,Compound,Bacterial Biotransformation
1,CC(NC(C)(C)C)C(=O)c1cccc(Cl)c1 (stereo not given) [BUPROPION],Compound NOT metabolized
2,O=C1CC2(CCCC2)CC(=O)N1CCCCN1CCN(c2ncccn2)CC1 [BUSPIRONE],Compound NOT metabolized

# Settings: human gut metagenome, 24 h, 2 µM
row,Compound,Bacterial Biotransformation
1,CC(NC(C)(C)C)C(=O)c1cccc(Cl)c1 (stereo not given) [BUPROPION],Compound NOT metabolized
2,O=C1CC2(CCCC2)CC(=O)N1CCCCN1CCN(c2ncccn2)CC1 [BUSPIRONE],Compound metabolized

# Settings: human gut metagenome, 24 h, 2 µM
# Remark: another data set of the same source
row,Compound,Bacterial Biotransformation
1,CC(NC(C)(C)C)C(=O)c1cccc(Cl)c1 (stereo not given) [BUPROPION],Compound NOT metabolized
2,O=C1CC2(CCCC2)CC(=O)N1CCCCN1CCN(c2ncccn2)CC1 [BUSPIRONE],Compound NOT metabolized

# Settings: human gut metagenome, 24 h, 2 µM
# Remark: another data set of the same source
row,Compound,Bacterial Biotransformation
1,CC(NC(C)(C)C)C(=O)c1cccc(Cl)c1 (stereo not given) [BUPROPION],Compound NOT metabolized
2,O=C1CC2(CCCC2)CC(=O)N1CCCCN1CCN(c2ncccn2)CC1 [BUSPIRONE],Compound NOT metabolized

# Settings: human gut metagenome, 24 h, 2 µM
# Remark: another data set of the same source
row,Compound,Bacterial Biotransformation
1,CC(NC(C)(C)C)C(=O)c1cccc(Cl)c1 (stereo not given) [BUPROPION],Compound NOT metabolized
2,O=C1CC2(CCCC2)CC(=O)N1CCCCN1CCN(c2ncccn2)CC1 [BUSPIRONE],Compound metabolized

# Settings: human gut metagenome, 24 h, 2 µM
# Remark: another data set of the same source
row,Compound,Bacterial Biotransformation
1,CC(NC(C)(C)C)C(=O)c1cccc(Cl)c1 (stereo not given) [BUPROPION],Compound metabolized
2,O=C1CC2(CCCC2)CC(=O)N1CCCCN1CCN(c2ncccn2)CC1 [BUSPIRONE],Compound metabolized

# Settings: human gut metagenome, 24 h, 2 µM
# Remark: another data set of the same source
row,Compound,Bacterial Biotransformation
1,CC(NC(C)(C)C)C(=O)c1cccc(Cl)c1 (stereo not given) [BUPROPION],Compound metabolized
2,O=C1CC2(CCCC2)CC(=O)N1CCCCN1CCN(c2ncccn2)CC1 [BUSPIRONE],Compound metabolized
